Data taken from patent US11492335B2, “Aryl or heteroaryl triazolone derivatives or salts thereof, or pharmaceutical compositions comprising the same” (YUHAN CORPORATION, priority 2018, dated 2022).
Where a name gives a salt, the structure may show the parent alone. Read-outs that look alike come from different tables or passages of the source.

Columns and labels:
Format in all cases: biochemical
[1] = target: T1, recombinant human DAO (diamine oxidase) (Homo sapiens, UniProt P19801); test: Activity on recombinant human DAO, Amplex Red method, 1 mM putrescine substrate; settings: recombinant human DAO, read-out: Inhibitory Activity (IC50, nM) DAO
T1 construct: purchased R&D systems
T1 sequence (P19801 20-751): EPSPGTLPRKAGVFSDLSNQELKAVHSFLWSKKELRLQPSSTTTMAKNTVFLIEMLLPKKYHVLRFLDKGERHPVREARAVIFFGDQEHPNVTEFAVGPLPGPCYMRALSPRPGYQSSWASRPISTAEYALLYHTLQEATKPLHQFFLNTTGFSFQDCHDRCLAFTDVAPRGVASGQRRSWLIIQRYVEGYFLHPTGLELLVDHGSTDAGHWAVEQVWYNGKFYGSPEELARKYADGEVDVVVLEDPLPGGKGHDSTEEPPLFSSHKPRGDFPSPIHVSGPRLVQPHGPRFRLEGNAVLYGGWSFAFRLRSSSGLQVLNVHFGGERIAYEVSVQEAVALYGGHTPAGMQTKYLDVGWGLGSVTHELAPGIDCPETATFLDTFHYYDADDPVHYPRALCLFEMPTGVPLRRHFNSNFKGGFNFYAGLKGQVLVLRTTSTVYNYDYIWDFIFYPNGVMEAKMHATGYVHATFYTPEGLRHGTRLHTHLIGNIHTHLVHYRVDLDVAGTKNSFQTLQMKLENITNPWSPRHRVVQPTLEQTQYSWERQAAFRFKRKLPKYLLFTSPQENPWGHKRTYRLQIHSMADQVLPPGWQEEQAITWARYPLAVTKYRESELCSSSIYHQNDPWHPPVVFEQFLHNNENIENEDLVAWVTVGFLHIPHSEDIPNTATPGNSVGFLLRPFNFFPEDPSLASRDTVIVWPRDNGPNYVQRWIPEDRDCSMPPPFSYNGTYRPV
In short: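 Inhibition of recombinant human DAO (diamine oxidase, R&D systems) was assessed with the Amplex Red Hydrogen Peroxide Assay Kit. Hydrogen peroxide produced from 1 mM putrescine was detected through an HRP-coupled reaction that converts Amplex Red into fluorescent resorufin, read at 544 nm excitation and 590 nm emission. IC50 values came from four-parameter logistic fits in GraphPad Prism.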

[2] = target: T2, recombinant human MAO-B (monoamine oxidase-B) (Homo sapiens, UniProt P27338); test: Activity on recombinant human MAO-B, Amplex Red method, 1 mM benzylamine substrate; settings: read-out: Inhibitory Activity (IC50, nM) MAO-B
T2 construct: purchased Sigma-Aldrich
T2 sequence (P27338 1-520): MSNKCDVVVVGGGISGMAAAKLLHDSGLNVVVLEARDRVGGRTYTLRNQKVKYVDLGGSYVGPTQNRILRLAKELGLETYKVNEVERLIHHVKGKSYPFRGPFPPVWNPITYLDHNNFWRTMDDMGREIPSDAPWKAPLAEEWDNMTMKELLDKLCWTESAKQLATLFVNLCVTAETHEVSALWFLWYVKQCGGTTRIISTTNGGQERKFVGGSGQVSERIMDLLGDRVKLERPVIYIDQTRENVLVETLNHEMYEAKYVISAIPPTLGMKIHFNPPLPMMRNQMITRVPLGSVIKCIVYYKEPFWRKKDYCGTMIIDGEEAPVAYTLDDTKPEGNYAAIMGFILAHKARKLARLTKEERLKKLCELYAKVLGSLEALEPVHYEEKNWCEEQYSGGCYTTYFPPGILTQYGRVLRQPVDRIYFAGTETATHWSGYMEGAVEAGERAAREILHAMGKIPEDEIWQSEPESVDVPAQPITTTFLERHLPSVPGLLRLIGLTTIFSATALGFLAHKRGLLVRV
In short: (§1)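 HRP-coupled Amplex Red H2O2 assay, 50 mM sodium phosphate pH 7.4; compounds (8-point 1:3 series, final DMSO <1%) preincubated with enzyme 30 min at 37° C, then 200 uM Amplex Red, 1 U/mL HRP and substrate (MAO-A 0.5 mM tyramine; MAO-B 1 mM benzylamine) added. Resorufin fluorescence (ex 544/em 590 nm) read over 1-2 h; IC50 from four-parameter logistic fit.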

[3] = target: T3, recombinant human MAO-A (monoamine oxidase-A) (Homo sapiens, UniProt P21397); test: Activity on recombinant human MAO-A, Amplex Red method, 0.5 mM tyramine substrate; settings: read-out: Inhibitory Activity (IC50, nM) MAO-A
T3 construct: purchased Sigma-Aldrich
T3 sequence (P21397 1-527): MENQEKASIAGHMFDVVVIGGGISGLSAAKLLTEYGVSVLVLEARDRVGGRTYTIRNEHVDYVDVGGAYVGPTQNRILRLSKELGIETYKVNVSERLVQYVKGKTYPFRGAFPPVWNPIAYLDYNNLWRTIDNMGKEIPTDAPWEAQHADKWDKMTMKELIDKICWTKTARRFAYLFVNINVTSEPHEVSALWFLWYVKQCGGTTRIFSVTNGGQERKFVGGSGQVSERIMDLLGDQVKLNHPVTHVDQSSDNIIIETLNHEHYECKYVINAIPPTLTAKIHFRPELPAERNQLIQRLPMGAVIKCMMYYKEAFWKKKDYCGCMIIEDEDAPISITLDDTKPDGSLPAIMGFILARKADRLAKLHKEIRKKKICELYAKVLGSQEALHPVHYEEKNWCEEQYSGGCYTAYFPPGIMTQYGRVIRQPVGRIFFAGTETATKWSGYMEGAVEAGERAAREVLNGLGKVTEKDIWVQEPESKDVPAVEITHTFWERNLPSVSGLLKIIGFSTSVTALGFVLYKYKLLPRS
In short: as §1

recombinant human VAP-1 = target: T4, recombinant human VAP-1 (Homo sapiens, UniProt Q16853); test: Activity on recombinant human VAP-1, Amplex Red HRP-coupled hydrogen peroxide assay, benzylamine substrate; settings: recombinant human VAP-1, benzylamine substrate, read-out: Inhibitory Activity (IC50, nM) human VAP-1
T4 construct: purchased R&D systems
T4 sequence (Q16853 1-763): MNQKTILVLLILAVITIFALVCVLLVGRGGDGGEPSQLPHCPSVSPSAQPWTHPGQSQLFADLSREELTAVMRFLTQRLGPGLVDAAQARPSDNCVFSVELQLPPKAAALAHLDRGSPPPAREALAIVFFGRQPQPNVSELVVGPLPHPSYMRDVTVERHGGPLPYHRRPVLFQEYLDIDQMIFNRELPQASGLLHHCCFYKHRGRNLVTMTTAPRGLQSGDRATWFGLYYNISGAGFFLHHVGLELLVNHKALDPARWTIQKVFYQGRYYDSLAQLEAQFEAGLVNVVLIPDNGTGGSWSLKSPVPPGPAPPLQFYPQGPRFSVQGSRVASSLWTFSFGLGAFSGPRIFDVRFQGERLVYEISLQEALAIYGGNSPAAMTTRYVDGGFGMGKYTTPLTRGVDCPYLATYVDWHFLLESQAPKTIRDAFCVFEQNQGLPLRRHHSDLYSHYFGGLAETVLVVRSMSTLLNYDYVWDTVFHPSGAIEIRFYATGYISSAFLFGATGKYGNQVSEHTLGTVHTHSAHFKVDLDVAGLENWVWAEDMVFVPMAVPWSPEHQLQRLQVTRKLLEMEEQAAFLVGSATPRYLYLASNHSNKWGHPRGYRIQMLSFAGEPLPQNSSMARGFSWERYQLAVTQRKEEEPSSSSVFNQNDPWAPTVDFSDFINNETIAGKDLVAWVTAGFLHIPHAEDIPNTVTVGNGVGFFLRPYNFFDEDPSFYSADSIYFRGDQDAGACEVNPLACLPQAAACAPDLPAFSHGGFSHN
In short: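 8-point 1:3 dilutions, final DMSO <1%; 30 min enzyme preincubation, 37 °C, pH 7.4 phosphate. Start: 1 mM benzylamine + 200 uM Amplex Red + 1 U/mL HRP. Read ex544/em590 over 1-2 h; % rate decrease vs DMSO control, 4-parameter logistic IC50.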

[4] = 1 mM putrescine, * = between 10 and 100 nM, ** = between 300 and 1000 nM

SMILES	IC50 [1, 4]	IC50 ([2]; 1 mM benzylamine)	IC50 ([3]; 0.5 mM tyramine)	IC50 (recombinant human VAP-1; 30 min preincubation at 37° C.)	IC50 ([1]; 1 mM putrescine substrate)	IC50 ([2]; 1 mM benzylamine substrate)	IC50 ([3]; 0.5 mM tyramine substrate)	IC50 (recombinant human VAP-1)	IC50 ([1]; 1 mM putrescine substrate, bound qualified by footnote * / **)
Cc1cc(-n2cnn(C/C(=C/F)CN)c2=O)cnc1Br [Example 27, 2-[(2E)-2-(aminomethyl)-3-fluoroprop-2-en-1-yl]-4-(6-bromo-5-methylpyridin-3-yl)-2,4-dihydro-3H-1,2,4-triazol-3-one hydrochloride]	5.4 nM	63 nM	> 100000 nM	2.5 nM	–	–	–	–	–
Cc1cc(-c2ccc3cn[nH]c3c2)cnc1-n1cnn(C/C(=C/F)CN)c1=O [Example 153, 2-[(2E)-2-(aminomethyl)-3-fluoroprop-2-en-1-yl]-4-[5-(1H-indazol-6-yl)-3-methylpyridin-2-yl]-2,4-dihydro-3H-1,2,4-triazol-3-one]	–	–	–	–	640 nM	703 nM	96000 nM	0.39 nM	–
NC/C(=C\F)Cn1ncn(-c2cc(-c3ccc4c(c3)OCO4)ccn2)c1=O [Example 170, 2-[(2E)-2-(aminomethyl)-3-fluoroprop-2-en-1-yl]-4-[4-(1,3-benzodioxol-5-yl)pyridin-2-yl]-2,4-dihydro-3H-1,2,4-triazol-3-one]	–	–	–	–	–	235 nM	> 100000 nM	0.74 nM	< 100 nM
NC/C(=C\F)Cn1ncn(-c2cc(C#Cc3ccncc3)ccn2)c1=O [Example 246, 2-[(2E)-2-(aminomethyl)-3-fluoroprop-2-en-1-yl]-4-[4-(pyridin-4-ylethynyl)pyridin-2-yl]-2,4-dihydro-3H-1,2,4-triazol-3-one hydrochloride]	–	–	–	–	12 nM	130 nM	> 100000 nM	0.5 nM	–
CC(C)c1nc(-c2ccc(-c3cccc(-n4cnn(C/C(=C/F)CN)c4=O)c3)cc2)no1 [Example 64, 2-[(2E)-2-(aminomethyl)-3-fluoroprop-2-en-1-yl]-4-{4′-[5-(propan-2-yl)-1,2,4-oxadiazol-3-yl]biphenyl-3-yl}-2,4-dihydro-3H-1,2,4-triazol-3-one hydrochloride]	< 30 nM	> 10000 nM	6030 nM	3.2 nM	–	–	–	–	–

Next, values leading:

IC50 [1, 4]	IC50 ([2]; 1 mM benzylamine)	IC50 ([3]; 0.5 mM tyramine)	IC50 (recombinant human VAP-1; 30 min preincubation at 37° C.)	IC50 ([1]; 1 mM putrescine substrate)	IC50 ([2]; 1 mM benzylamine substrate)	IC50 ([3]; 0.5 mM tyramine substrate)	IC50 (recombinant human VAP-1)	IC50 ([1]; 1 mM putrescine substrate, bound qualified by footnote * / **)	SMILES
480 nM	170 nM	4800 nM	0.35 nM	–	–	–	–	–	Cc1cc(-c2ccc3c(c2)OCO3)cnc1-n1cnn(C/C(=C/F)CN)c1=O [Example 150, 2-[(2E)-2-(aminomethyl)-3-fluoroprop-2-en-1-yl]-4-[5-(2H-1,3-benzodioxol-5-yl)-3-methylpyridin-2-yl]-2,4-dihydro-3H-1,2,4-triazol-3-one hydrochloride]
< 100 nM	18000 nM	> 100000 nM	0.8 nM	–	–	–	–	–	NC/C(=C\F)Cn1ncn(-c2cccc(-c3cccnc3)c2)c1=O [Example 82, 2-[(2E)-2-(aminomethyl)-3-fluoroprop-2-en-1-yl]-4-[3-(pyridin-3-yl)phenyl]-2,4-dihydro-3H-1,2,4-triazol-3-one hydrochloride]
–	–	–	–	1.3 nM	59000 nM	> 100000 nM	0.2 nM	–	NC/C(=C\F)Cn1ncn(-c2cccc(C#Cc3cnc4c(c3)NC(=O)CO4)n2)c1=O [Example 258, 7-[2-[6-[1-[(E)-2-(aminomethyl)-3-fluoro-allyl]-5-oxo-1,2,4-triazol-4-yl]-2-pyridyl]ethynyl]-1H-pyrido[2,3-b][1,4]oxazin-2-one]
13000 nM	> 10000 nM	> 100000 nM	0.9 nM	–	–	–	–	–	Cc1cc(-c2ccc(N3CCNCC3)cc2)cnc1-n1cnn(C/C(=C/F)CN)c1=O [Example 145, 2-[(2E)-2-(aminomethyl)-3-fluoroprop-2-en-1-yl]-4-{3-methyl-5-[4-(piperazin-1-yl)phenyl]pyridin-2-yl}-2,4-dihydro-3H-1,2,4-triazol-3-one hydrochloride]
25 nM	2300 nM	> 100000 nM	2.4 nM	–	–	–	–	–	NC/C(=C\F)Cn1ncn(-c2ccc(Br)nc2)c1=O [Example 25, 2-[(2E)-2-(aminomethyl)-3-fluoroprop-2-en-1-yl]-4-(6-bromopyridin-3-yl)-2,4-dihydro-3H-1,2,4-triazol-3-one hydrochloride]
–	–	–	–	1400 nM	> 100000 nM	> 100000 nM	23 nM	–	Cc1ccc(-c2ccc3cn[nH]c3c2)nc1-n1cnn(C/C(=C/F)CN)c1=O [Example 214, 2-[(2E)-2-(aminomethyl)-3-fluoroprop-2-en-1-yl]-4-[6-(1H-indazol-6-yl)-3-methylpyridin-2-yl]-2,4-dihydro-3H-1,2,4-triazol-3-one hydrochloride]
